# Experimental data taken from patent US12559789B2, “Method of targeting patient-specific oncogenes in extrachromosomal DNA to treat glioblastoma” (The Jackson Laboratory, priority 2017, dated 2026).
# “Also recorded” adds a separate entry of the source.
# Assays:
# Format in all cases: in vivo, mouse
# HF3077 PDX = test: Survival of orthotopic HF3077 PDX mice treated with capmatinib (Kaplan-Meier, log-rank); settings: single agent, 30 mg/kg daily oral doses, log-rank test, significance P<0.05
# Excerpt: Orthotopic xenografts: Following IACUC guidelines in an institutionally approved animal use protocol, the inventors implanted the GBM neurosphere cell suspensions into 8-week old female nude mice (NCRNU, Taconic Farms) (i.e. immunodeficient mice) using the protocol described in Berezovsky, A. D. et al. SOX2 promotes malignancy in glioblastoma by regulating plasticity and astrocytic differentiation, Neoplasia 16, 193-206 e25 (2014), which is incorporated herein by reference. It should be noted that other “nude” or “immunodeficient” mice may be used in the present invention, as would be apparent to those skilled in the art. Thus, the present invention is not limited to the specific nude mice used in this experiment. […] Animals were monitored daily by an observer blinded to the group allocation and sacrificed upon first signs of neurological deficit or weight loss greater than 20%. […]
# The inventors treated HF3077 PDXs with capmatinib (purchased from Matrix Scientific Products (Columbia, SC)) suspensions in 0.5% methylcellulose/0.1% Tween 80 were prepared every week and administered by oral gavage using a 20 g×1.5″ gavage needle (Cadence) at a dose of 30 mg/kg once a day (5 days/week) until the end of the study. […] Animals were monitored daily and sacrificed upon first signs of neurological deficit or weight loss greater than 20%. […]
# HF3035 PDX = test: Survival of HF3035 PDX mice treated with capmatinib (Kaplan-Meier, log-rank); settings: single agent, 30 mg/kg daily oral doses, log-rank test
# [1] = LC-MS/MS quantitation of capmatinib in plasma and tumor tissue of HF3077 PDX (brain penetrance); settings: 2 h after the last 30 mg/kg oral dose
# Description: To evaluate brain penetrance of capmatinib, the inventors drew blood samples two hours after administration of the last capmatinib 30 mg/kg dose, sacrificed the animals, harvested brains, and froze 2 mm coronal sections in OCT. The inventors dissected tumor tissue from the frozen blocks. The inventors determined capmatinib concentration in homogenized tumor tissue and plasma for three treated animals and one control was quantified by LC-MS/MS. For mouse plasma sample analysis, the inventors precipitated 25 μL of each sample with 200 μL of acetonitrile. This suspension was vortexed for 30 min and centrifuged at 4k rpm for 15 min, after which 100 μL of the extract was aliquoted and mixed with 200 μL of acetonitrile/water (1/2, v/v) prior to LC-MS/MS analysis. The extracted plasma samples were analyzed on a Waters Acquity UPLC system coupled with a Waters Xevo TQ-S triple quadrupole mass spectrometer operated at positive mode. The capillary voltage was set to 0.5 kv and collision energy to 32 eV. […] The mobile phase A was 0.1% acetic acid/water and B was 0.1% acetic acid/acetonitrile. The LC gradient was 10% B (0-0.3 min), 10-95% B (0.3-1.3 min), 95% B (1.3-1.7 min), 10% B (1.7-2.0 min) and the flow rate was 0.5 mL/min. The column temperature was 40° C. The injection volume was 2 μL. […] The tissue homogenates were analyzed by using the same method as described above.
smiles,measurement,setting,value
"CNC(=O)c1ccc(-c2cnc3ncc(Cc4ccc5ncccc5c4)n3n2)cc1F [capmatinib, Capmatinib]",survival of HF3077 PDX,HF3077 PDX,significant survival benefit; also recorded: increases survival of HF3077 PDX
same,survival of HF3035 PDX,HF3035 PDX,did not increase survival
same,concentration of drug in the brain tumor,[1],relatively low concentration
